Source: patent US20260250320A1, “LIPIDATED PEPTIDE INHIBITORS OF INTERLEUKIN-23 RECEPTOR” (Janssen Pharmaceutica NV, priority 2023, published 2026)
*1 amine or outer side, *2 acyl side, *3 side chain or, on linkers, in order; H or OH if unused. Where a SMILES comes first, the peptide text is derived from it. Bridges are numbered along the chain shown (N, C = ends). [ ]: non-standard residue; d: D form. The star is where a group is joined. X8 = CC(=O)[C@H](CCCCNC(=O)CC[C@H](NC(=O)CCCCCCCCCCCCCCCCC(=O)O)C(=O)O)N(C)*; Me3N+CH2CH2(OCH2CH2)4CO = C[N+](C)(C)CCOCCOCCOCCOCCC(=O)*; Trp(7-Me) = Cc1cccc2c(C[C@H](N)C(=O)O)c[nH]c12; C18 diacid = O=C(O)CCCCCCCCCCCCCCCCC(=O)*; X6 = CN(CC[C@H](N[*:1])C(=O)[*:2])[*:3]; γGlu = O=C(O)[C@H](CCC(=O)[*:2])N[*:1]; 2Nal = N[C@@H](Cc1ccc2ccccc2c1)C(=O)O; AEF = NCCOc1ccc(C[C@H](N)C(=O)O)cc1; X7 = C[N+](C)(C)CCOCCOCCOCCOC(=O)*; 3Pal = N[C@@H](Cc1cccnc1)C(=O)O; Lys(Me) = CNCCCC[C@H](N)C(=O)O; Pen = CC(C)(S)[C@H](N)C(=O)O; Thp = NC1(C(=O)O)CCOCC1; X1 = C[N+](C)(C)CCCCC*; AEEA = NCCOCCOCC(=O)O; Sar = CNCC(=O)O

Experiments:
IL-23R = molecular target: T1, IL-23R (Homo sapiens, UniProt Q5VWK5); test: IL23R Reporter Assay; assay type: cell-based; conditions: HEK293 cells containing IL-23R, IL-12Rβ1 and STAT-inducible firefly luciferase reporter; 10 ng/mL IL-23 (EC90); 5 h
T1 construct: HEK293 cells containing IL-23R, IL-12Rβ1 and a firefly luciferase reporter gene driven by a STAT-inducible promoter (Promega); host or cells: HEK293
T1 sequence (Q5VWK5 24-629): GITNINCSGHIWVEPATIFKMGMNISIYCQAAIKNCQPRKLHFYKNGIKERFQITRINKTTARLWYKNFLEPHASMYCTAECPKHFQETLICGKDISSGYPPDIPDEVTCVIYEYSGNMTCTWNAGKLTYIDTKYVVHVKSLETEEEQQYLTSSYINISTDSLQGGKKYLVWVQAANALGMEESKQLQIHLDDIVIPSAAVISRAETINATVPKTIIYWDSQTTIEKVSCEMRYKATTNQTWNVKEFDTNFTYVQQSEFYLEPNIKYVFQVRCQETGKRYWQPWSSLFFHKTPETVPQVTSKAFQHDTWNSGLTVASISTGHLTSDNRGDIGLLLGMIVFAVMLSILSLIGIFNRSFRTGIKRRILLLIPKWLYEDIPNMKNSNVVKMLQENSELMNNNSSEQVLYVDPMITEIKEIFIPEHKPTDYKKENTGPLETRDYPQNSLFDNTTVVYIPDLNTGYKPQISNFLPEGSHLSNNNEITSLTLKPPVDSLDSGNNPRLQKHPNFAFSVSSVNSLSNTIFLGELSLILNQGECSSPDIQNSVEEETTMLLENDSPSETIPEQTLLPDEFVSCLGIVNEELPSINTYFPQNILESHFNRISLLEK
In short: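 IC50 values were fitted with a 4-parameter Hill equation to luciferase signal, scaled between IL-23-only wells (0% inhibition) and 30 μM reference inhibitor (100%). The readout was a STAT-inducible reporter in IL-23R/IL-12Rβ1 HEK293 cells, stimulated with added 10 ng/mL IL-23 (EC90) for 5 h at 37° C and developed with BioGlo.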

[1] = system: IL-23-stimulated phosphorylated STAT3 in peripheral blood mononuclear cells (PBMCs); test: PBMC pSTAT3 Assay; assay type: cell-based; conditions: PBMCs from healthy donors; 30 min preincubation with peptide; IL-23 5 ng/mL for 30 min; phospho-STAT3 by MSD
In short: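 Phospho-STAT3 quantified by Meso Scale assay in lysates of PBMCs exposed to IL-23 (5 ng/mL, 30 min, 37 °C) after 30 min peptide pretreatment. Cells were cryopreserved donor PBMCs activated 4 days with anti-CD3 plus IL-1β (100 ng/mL) and starved ~4 h; IC50 reported.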

IC50 (IL-23R) | Structure (SMILES) | IC50 [1]
≥ 500 nM | CC(=O)NCCCC[C@@H]1NC(=O)[C@H](Cc2c[nH]c3c(C)cccc23)NC(=O)[C@H]([C@@H](C)O)NC(=O)[C@H](CC(N)=O)NC(=O)[C@@H](NC(=O)O)CCCC[C@@H](C(=O)N[C@@H](Cc2ccc(OCCN)cc2)C(=O)N[C@@H](Cc2ccc3ccccc3c2)C(=O)NC2(C(=O)N[C@@H](CCC(=O)O)C(=O)N[C@@H](CC(N)=O)C(=O)N[C@@H](Cc3cccnc3)C(=O)N(C)CC(=O)C[C@@H](CCCCNC(=O)COCCOCCNC(=O)COCCOCCNC(=O)CC[C@H](NC(=O)CCCCCCCCCCCCCCCC(=O)O)C(=O)O)C(=O)NCCOCCOCC[N+](C)(C)C)CCOCC2)NC1=O [compound 150, MeCO-Pen(3)-N-T-7MeW-K(Ac)-Pen(3)-AEF-2Nal-THP-E-N-3Pya-Sar-K(PEG2PEG2gEC18OH)-CONH(PEG3a)] | ≥ 5 nM
< 50 nM | CC(=O)N(C)CCCC[C@@H]1NC(=O)[C@H](Cc2c[nH]c3c(C)cccc23)NC(=O)[C@H]([C@@H](C)O)NC(=O)[C@H](CC(=O)N(C)C)NC(=O)[C@@H](NC(=O)COCCOCCNC(=O)COCCOCCNC(=O)CC[C@H](NC(=O)CCCCCCCCCCCCCCCCC(=O)O)C(=O)O)C(C)(C)SSC(C)(C)[C@@H](C(=O)N[C@@H](Cc2ccc(OCCCCC[N+](C)(C)C)cc2)C(=O)N[C@@H](Cc2ccc3ccccc3c2)C(=O)NC2(C(=O)N[C@@H](CCCCN(C)C(C)=O)C(=O)N[C@@H](CC(N)=O)C(=O)N[C@@H](Cc3cccnc3)C(=O)N(C)CC(=O)N(C)C)CCOCC2)NC1=O [compound 118, HOC18gEPEG2PEG2CO-Pen(3)-N(N(Me)2)-T-7MeW-K(NMeAc)-Pen(3)-TMAPF-2Nal-THP-K(NMeAc)-N-3Pya-Sar-CON(Me)2] ({C18 diacid-γGlu-AEEA-AEEA}-[Pen]D(NMe2)T[Trp(7-Me)][Lys(Me)](Ac)[Pen]Y(X1)[2Nal][Thp][Lys(Me)](Ac)N[3Pal][Sar]-NMe2; disulfide 1-6) | < 0.5 nM
< 50 nM | CC(=O)NCCCC[C@@H]1NC(=O)[C@H](Cc2c[nH]c3c(C)cccc23)NC(=O)[C@H]([C@@H](C)O)NC(=O)[C@H](CC(N)=O)NC(=O)[C@@H](NC(C)=O)C(C)(C)SSC(C)(C)[C@@H](C(=O)N[C@@H](Cc2ccc(OCCN)cc2)C(=O)N[C@@H](Cc2ccc3ccccc3c2)C(=O)NC2(C(=O)N[C@@H](CCC(=O)O)C(=O)N[C@@H](CC(N)=O)C(=O)N[C@@H](Cc3cccnc3)C(=O)N(C)CC(=O)N[C@@H](CCCCNC(=O)COCCOCCNC(=O)COCCOCCNC(=O)CC[C@H](NC(=O)CCCCCCCCCCCCCCCCC(=O)O)C(=O)O)C(N)=O)CCOCC2)NC1=O [compound 27, MeCO-Pen(3)-N-T-7MeW-K(Ac)-Pen(3)-AEF-2Nal-THP-E-N-3Pya-Sar-K(PEG2PEG2gEC18OH)-CONH2] | < 0.5 nM
50 to 500 nM | CC(=O)[C@H](CCCCNC(=O)CC[C@H](NC(=O)CCCCCCCCCCCCCCCCC(=O)O)C(=O)O)N(C)C(=O)[C@H](Cc1cccnc1)NC(=O)[C@H](CC(N)=O)NC(=O)[C@H](CCC(=O)O)NC(=O)C1(NC(=O)[C@H](Cc2ccc3ccccc3c2)NC(=O)[C@H](Cc2ccc(OCCN)cc2)NC(=O)[C@H]2NC(=O)[C@H](CCN(C)C(=O)OCCOCCOCCOCC[N+](C)(C)C)NC(=O)[C@H](Cc3c[nH]c4c(C)cccc34)NC(=O)[C@H]([C@@H](C)O)NC(=O)[C@H](CC(=O)N(C)C)NC(=O)[C@@H](NC(=O)CCOCCOCCOCCOCC[N+](C)(C)C)C(C)(C)SSC2(C)C)CCOCC1 [compound 106, cPEG5aCO-Pen(3)-N(N(Me)2)-T-7MeW-Dab(NMecPEG5a)-Pen(3)-AEF-2Nal-THP-E-N-3Pya-NMeK(gEC18OH)-CONH2] ({Me3N+CH2CH2(OCH2CH2)4CO}-[Pen]D(NMe2)T[Trp(7-Me)][X6](X7)[Pen][AEF][2Nal][Thp]EN[3Pal]-X8; disulfide 1-6) | 0.5 to 5 nM
